Laboratory results reported in ChEMBL document CHEMBL5661943, “ASAP - In vitro antiviral effect” (2024).
pEC50: −log10 of the molar value.

Assays:
Zika virus [1] = assay: EC50 is reported via analysis of immunofluorescence staining. The assay has been performed by Icahn School of Medicine at Mount Sinai.; format: functional, organism-based, Chlorocebus sabaeus, VeroE6/TMPRSS2; settings: Zika virus, VeroE6/TMPRSS2; for EC90: Baseline response 0 %, Maximum response 100 %, P-gp concentration 2 uM, P-gp inhibitor Elacidar
dengue virus type 2 [2] = assay: Functional immunofluorescence assay to measure dose dependent changes in antiviral-drug inhibitory efficacy against Dengue virus type 2 Thailand/16681/84 in Vero E6/TMPRSS2 cells (cotreated with P-gp inhibitor, Elacridar). Cells are treated with antiviral candidates that are serially diluted, following infection, cells are fixed. EC50 is reported via analysis of immunofluorescence staining. The assay has been performed by Icahn School of Medicine at Mount Sinai.; format: organism-based, Chlorocebus sabaeus, VeroE6/TMPRSS2; settings: Dengue virus
Zika virus [3] = assay: Functional CPE-based assay to measure dose dependent changes in antiviral-drug inhibitory efficacy against Zika virus MR766 in Vero E6 miRFP670 cells. Cells are treated with antiviral candidates that are serially diluted. EC50 is reported via analysis of MTS assay as a readout of CPE. The assay has been performed by KU Leuven.; format: organism-based, Chlorocebus sabaeus, Vero C1008; settings: Zika virus; for pEC50: Vero C1008
dengue virus type 2 [4] = assay: Functional assay to measure dose dependent changes in antiviral-drug inhibitory efficacy against Dengue virus type 2 New Guinea C in Vero E6 miRFP670 cells (cotreated with P-gp inhibitor, CP100356). Cells are treated with antiviral candidates that are serially diluted, following infection, cells are fixed. EC50 is reported via analysis of fluorescence intensity using high-content imager. The …; format: organism-based, Chlorocebus sabaeus, Vero C1008; settings: Dengue virus

| SMILES | pEC50 (Zika virus [1]) | pEC50 (dengue virus type 2 [2]; VeroE6/TMPRSS2) | pEC50 (Zika virus [3]) | pEC50 (dengue virus type 2 [4]; Vero C1008) | EC90 (dengue virus type 2 [2]; VeroE6/TMPRSS2) [µM] | also measured |
| --- | --- | --- | --- | --- | --- | --- |
| CC(C)c1nc2c(C(=O)Nc3ccc4c(c3)CNC4)cc(Br)cc2[nH]1 | < 5.26 | < 4.78 | > 6.41 | < 5.51 |  | EC90 (Zika virus [1]; Hill slope 0.282, Maximum measured 117.995 %, Minimum measured 67.231 %, R squared 0.042): > 5.56 µM; EC90 (dengue virus type 2 [2]; VeroE6/TMPRSS2, Maximum measured 259.996 %, Minimum measured 97.005 %, P-gp concentration 2 uM, P-gp inhibitor Elacidar): > 16.7 µM; EC90 (Zika virus [3]; Vero C1008, Baseline response 0 %, Hill slope -0.56, Maximum measured 41.831 %, Maximum response 100 %, Minimum measured -11.106 %, R squared 0.026): < 0.391 µM; EC90 (dengue virus type 2 [4]; Vero C1008, Maximum measured 127.324 %, Minimum measured 101.275 %, P-gp concentration 500 nM, P-gp inhibitor CP100356): > 3.12 µM |
| O=C(Nc1ccc2c(c1)CNC2)c1cc(Cl)cc(C2CC2)c1 | < 5.26 | < 4.30 | > 6.41 | < 4.90 |  | EC90 (Zika virus [1]; Hill slope -0.303, Maximum measured 133.833 %, Minimum measured 73.063 %, R squared 0.118): > 5.56 µM; EC90 (dengue virus type 2 [2]; VeroE6/TMPRSS2, Baseline response 0 %, Hill slope -0.218, Maximum measured 127.968 %, Maximum response 100 %, Minimum measured 35.242 %, P-gp concentration 2 uM, R squared 0.016, P-gp inhibitor Elacidar): > 50 µM; EC90 (Zika virus [3]; Vero C1008, Baseline response 0 %, Hill slope -0.16, Maximum measured 19.084 %, Maximum response 100 %, Minimum measured -10.525 %, R squared 0.01): < 0.391 µM; EC90 (dengue virus type 2 [4]; Vero C1008, Baseline response 0 %, Hill slope -18.192, Maximum measured 115.18 %, Maximum response 100 %, Minimum measured 61.318 %, P-gp concentration 500 nM, R squared 0.219, P-gp inhibitor CP100356): > 12.5 µM |
| CCOc1cccc(-c2ccc(S(=O)(=O)Nc3ccc(Cl)cc3C(=O)O)cc2C)c1 | 5.61 | 6.76 | < 4.30 | 4.65 | > 16.7 | EC90 (Zika virus [1]; Hill slope -0.481, Maximum measured 136.466 %, Minimum measured 2.895 %, R squared 0.53): > 50 µM; EC90 (Zika virus [3]; Vero C1008, Baseline response 0 %, Hill slope -0.317, Maximum measured 5.247 %, Maximum response 100 %, Minimum measured -4.425 %, R squared 0.236): > 50 µM; EC90 (dengue virus type 2 [4]; Vero C1008, Baseline response 0 %, Hill slope -31.955, Maximum measured 106.035 %, Maximum response 100 %, Minimum measured 0.035 %, P-gp concentration 500 nM, R squared 0.9, P-gp inhibitor CP100356): 23.9 µM |
| CC(C)Cc1nc2c(C(=O)Nc3ccc4c(c3)CNC4)cc(Br)cc2[nH]1 | < 5.26 | < 5.26 | < 4.30 | < 6.11 |  | EC90 (Zika virus [1]; Hill slope -10.435, Maximum measured 137.671 %, Minimum measured 68.671 %, R squared 0.096): > 5.56 µM; EC90 (dengue virus type 2 [2]; VeroE6/TMPRSS2, Maximum measured 192.149 %, Minimum measured 144.973 %, P-gp concentration 2 uM, P-gp inhibitor Elacidar): > 5.56 µM; EC90 (Zika virus [3]; Vero C1008, Baseline response 0 %, Hill slope 1.82, Maximum measured 17.962 %, Maximum response 100 %, Minimum measured -5.537 %, R squared 0.817): > 50 µM; EC90 (dengue virus type 2 [4]; Vero C1008, Maximum measured 122.11 %, Minimum measured 121.973 %, P-gp concentration 500 nM, P-gp inhibitor CP100356): > 0.781 µM |
| Clc1ccc2[nH]cc(Cc3ccc(-c4nn[nH]n4)cc3)c2c1 | 4.40 | 4.61 | < 4.30 | < 4.30 | 34 | EC90 (Zika virus [1]; Hill slope -2.483, Maximum measured 171.794 %, Minimum measured 35.965 %, R squared 0.343): > 50 µM; EC90 (Zika virus [3]; Vero C1008, Maximum measured 1.604 %, Minimum measured -1.05 %): > 50 µM; EC90 (dengue virus type 2 [4]; Vero C1008): > 50 µM |
